The source of these data is ChEMBL document CHEMBL3046553, “Bioanalytical method development and validation for simultaneous estimation of (R)- and (S)-isomers of S002-333: a potent novel anti-thrombotic agent using LCMS/MS” (Med Chem Res, 2011).

Series [1] is described as follows: Volume of distribution in New Zealand Oryctolagus cuniculus (rabbit) at 2 mg/kg, iv. It counts as ADME, organism-based. Set-up: dose 2 mg/kg, route intravenous. Particulars: in vivo.
Series [2] in a line: AUC (0 to infinity) in New Zealand Oryctolagus cuniculus (rabbit) at 2 mg/kg, iv. The format is ADME, organism-based. Set-up: time infinity, dose 2 mg/kg, route intravenous. Particulars: plasma.
Series [3] can be described thus: Clearance in New Zealand Oryctolagus cuniculus (rabbit) at 2 mg/kg, iv. The format is ADME, organism-based. Also on record: dose 2 mg/kg, route intravenous. Particulars: in vivo.
For a further series, the system named is Plasma. The experiment in a line: Drug recovery in New Zealand Oryctolagus cuniculus (rabbit) plasma at 1.56 to 400 ng/ml. The format is ADME, cell-free.
A short description of series [4]: Half life in New Zealand Oryctolagus cuniculus (rabbit) at 2 mg/kg, iv. Particulars: in vivo. Set-up: dose 2 mg/kg, route intravenous. The format is ADME, organism-based.
Series [5] can be described thus: Initial plasma concentration in New Zealand Oryctolagus cuniculus (rabbit) at 2 mg/kg, iv. It counts as ADME, organism-based. Set-up: dose 2 mg/kg, route intravenous.

One may read the Vd as the apparent volume that relates the amount in the body to the concentration in plasma or blood. The low end stands for little distribution into tissue, the high end for wide distribution into tissue. What is called AUC(0-inf) is the area under the concentration-time curve extrapolated to infinity. Lower therefore signals less exposure. What is called clearance is the rate of elimination divided by the concentration. A lower clearance goes with a low capacity for elimination. A word on the half-life: it is how long it takes for the measured level to halve. In turn, `COc1ccc(S(=O)(=O)N2Cc3[nH]c4ccccc4c3C[C@@H]2C(N)=O)cc1` returned a Vd in series [1] of 22 L/kg. Moreover, in series [2], the AUC(0-inf) worked out at 568 ng·h/mL. Moreover, in series [3], the clearance is 64.7 mL/min/kg. The compound also returned a Drug recovery with Plasma of 53.21%. Besides, the half-life in series [4] is 3.84 h. The same compound came in with a C0 in series [5] of 288 ng/mL.
Consider `COc1ccc(S(=O)(=O)N2Cc3[nH]c4ccccc4c3C[C@H]2C(N)=O)cc1` [S007-1558 (S)], for which the Vd in series [1] turned out to be 29.8 L/kg. In series [2], this compound registered an AUC(0-inf) of 436 ng·h/mL. Also, in series [3], the clearance is 84.3 mL/min/kg. This compound came in with a Drug recovery with Plasma of 40.88%. Besides, the half-life in series [4] is 4.01 h. In series [5], this compound had a C0 of 276 ng/mL.
